Consider 1 molecule from ChEMBL document CHEMBL3832086, “DailyMed|setid=1c5502c7-7731-4d3e-b4fe-7fd44dd5908b | UROXATRAL - alfuzosin hydrochloride tablet, extended release|Physicians Total Care, Inc”.

The nature of data set [1]: Evaluation of absolute bioavailability of Alfuzosin hydrochloride following oral administration of 10 mg Alfuzosin hydrochloride tablets under fed conditions. It is filed as ADME, organism-based. The settings on record: human, in vivo, at 10 mg, dietary status Fed, dosed compound id 46, dosed compound name ALFUZOSIN HYDROCHLORIDE, regimen Single dose, tissue Plasma.
A short description of data set [2]: Evaluation of pharmacokinetic parameters for Alfuzosin hydrochloride following multiple oral or intravenous administration of Alfuzosin hydrochloride. Conditions: human, in vivo, dosed compound id 46, dosed compound name ALFUZOSIN HYDROCHLORIDE, regimen Multiple dose, tissue Plasma. On the set-up: dose 10 mg, route oral. In kind it is ADME, organism-based.

In turn, `COc1cc2nc(N(C)CCCNC(=O)C3CCCO3)nc(N)c2cc1OC.Cl` (stereo unspecified) [ALFUZOSIN HYDROCHLORIDE] yielded a bioavailability in data set [1] of 49%. This molecule also registered a Cmax in data set [2] (po, 10 mg, dietary status Fed) of 13.6 ng/mL. For the same molecule, in data set [2] (po, 10 mg, dietary status Fed, read-out: AUC(0-24)), the AUC was 194 ng·h/mL. The Tmax in data set [2] (dietary status Fed, dose 10 mg, route oral) stood at 8 h. The same molecule showed a half-life in data set [2] (dose 10 mg, route oral) of 10 h. This molecule returned a Vd in data set [2] (gender male, route iv) of 3.2 L/kg.
